Article PMC8227885 (Viruses, 2021)

Target: SARS-CoV-2 RBD:ACE2 (UniProt P0DTC2+Q9BYF1)
Experiment: biochemical
Design: species or system SARS-CoV-2 (RBD); human (ACE2)

SARS-CoV-2 RBD:ACE2, sequence (Q9BYF1 18-615, one chain of several): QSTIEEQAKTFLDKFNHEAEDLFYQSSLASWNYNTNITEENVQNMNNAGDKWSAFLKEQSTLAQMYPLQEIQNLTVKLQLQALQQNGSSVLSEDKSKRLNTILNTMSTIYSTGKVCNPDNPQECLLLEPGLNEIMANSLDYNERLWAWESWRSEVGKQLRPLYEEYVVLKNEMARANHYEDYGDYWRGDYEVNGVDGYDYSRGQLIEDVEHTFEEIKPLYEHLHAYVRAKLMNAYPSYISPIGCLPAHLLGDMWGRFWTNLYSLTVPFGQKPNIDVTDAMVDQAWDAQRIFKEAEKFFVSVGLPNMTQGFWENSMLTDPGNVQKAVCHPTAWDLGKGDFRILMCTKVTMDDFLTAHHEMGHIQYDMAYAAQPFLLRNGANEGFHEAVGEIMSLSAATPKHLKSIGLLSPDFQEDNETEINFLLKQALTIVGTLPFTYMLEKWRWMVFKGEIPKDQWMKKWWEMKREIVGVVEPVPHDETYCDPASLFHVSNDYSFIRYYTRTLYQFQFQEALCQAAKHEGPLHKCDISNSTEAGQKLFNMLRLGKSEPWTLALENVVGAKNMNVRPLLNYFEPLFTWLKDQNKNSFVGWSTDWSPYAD

**Q.** Which results are given for `O=c1c(O)cc([C@H]2Oc3cc(O)cc(O)c3C[C@H]2O)cc2c([C@H]3Oc4cc(O)cc(O)c4C[C@H]3O)cc(O)c(O)c12` [Theaflavin]?
**A.** IC50: 41.7 µM; effect on SRAE2-BS activity (suppression): significantly suppressed SRAE2-BS activity
